Test results: paper PMC6270455, “Antibacterial and Herbicidal Activity of Ring-Substituted 3-Hydroxynaphthalene-2-carboxanilides” (Molecules, 2013)
Values after ≈ are worked out from the molar mass of the structure shown. Values joined by “and” are separate entries in the source; they are usually repeats but may differ in a detail not shown here. Equal values may be shown once.

Key:
[1] = Lipophilicity determination by RP-HPLC (capacity factor, log k); type: physicochemical; conditions: RP-HPLC capacity factor logarithm; C18 column, MeOH 60% / H2O 40%, 40 °C
Method: Lipophilicity of the studied compounds was determined by RP-HPLC as capacity factor logarithm (log k) and calculated as log P using ACD/Percepta software. […] It is important to note that lipophilicity also has a great impact on target and off-target interactions, as mentioned below.
A HPLC system Agilent 1200 equipped with DAD detector (Agilent, Santa Clara, CA, USA) was used. A chromatographic column Symmetry® C18 5 μm, 4.6 × 250 mm, Part No. WAT054275, (Waters Corp., Milford, MA, USA) was used. The HPLC separation process was monitored and evaluated by EZChrom Elite software ver. 3.3.2 (Agilent). Isocratic elution by a mixture of MeOH p.a. (60%) and H2O-HPLC Mili-Q grade (40%) as a mobile phase was used. The total flow of the column was 1.0 mL/min, injection 20 μL, column temperature 40 °C and sample temperature 10 °C. The detection wavelength 210 nm was chosen. The KI methanolic solution was used for the dead time (tD) determination. Retention times (tR) were measured in minutes. The capacity factors k were calculated according to formula k = (tR − tD)/tD, where tR is the retention time of the solute, whereas tD denotes the dead time obtained using an unretained analyte. Log k, calculated from the capacity factor k, is used as the lipophilicity index converted to log P scale.

[2] = system: Staphylococcus aureus ATCC 29213; assay: In vitro antibacterial susceptibility testing, broth dilution micro-method; type: cell-based; conditions: 24 h, 37 °C; for MIC: ATCC29213, MH broth
Method: (§1) The synthesized compounds were evaluated for in vitro antibacterial activity against representatives of multidrug-resistant bacteria, clinical isolates of methicillin-resistant Staphylococcus aureus (MRSA) 63718, SA 630 and SA 3202 that were obtained from the National Institute of Public Health, Prague, Czech Republic. Staphylococcus aureus ATCC 29213 was used as a reference and quality control strain. Ampicillin (Sigma-Aldrich) was used as the standard. Prior to testing, each strain was passaged onto nutrient agar (Oxoid, Hampshire, UK) with 5% of bovine blood, and bacterial inocula were prepared by suspending a small portion of bacterial colony in sterile phosphate buffered saline (pH 7.2–7.3). The cell density was adjusted to 0.5 McFarland units using a densitometer (Densi-La-Meter, LIAP, Riga, Latvia). The final inoculum was made by 1:20 dilution of the suspension with the Mueller-Hinton broth (MH broth). […] The broth dilution micro-method modified according to NCCLS guidelines in MH broth was used to determine the minimum inhibitory concentration (MIC). Drug-free controls, sterility controls and controls consisted of MH broth and DMSO alone were included. The determination of results was performed visually after 24 h of static incubation in the darkness at 37 °C in an aerobic atmosphere. The MICs were defined as the lowest concentration of the compound at which no visible bacterial growth was observed.

[3] = system: methicillin-resistant Staphylococcus aureus (MRSA) 63718; assay: as above; type: cell-based; conditions: clinical isolate MRSA 63718, MH broth, 24 h, 37 °C; for MIC: Staphylococcus aureus
Method: as §1

[4] = system: methicillin-resistant S. aureus SA 3202; assay: as above; type: cell-based, Staphylococcus aureus; conditions: clinical isolate MRSA SA 3202, MH broth, 24 h, 37 °C; for MIC: Staphylococcus aureus
Method: as §1

[5] = system: methicillin-resistant S. aureus SA 630; assay: as above; type: cell-based, Staphylococcus aureus; conditions: clinical isolate MRSA SA 630, MH broth, 24 h, 37 °C; for MIC: Staphylococcus aureus
Method: as §1

[6] = system: Mycobacterium marinum CAMP 5644; assay: In vitro antimycobacterial evaluation, broth dilution micro-method; type: cell-based; conditions: CAMP5644, 504 h, Middlebrook 7H9, 21 days, 28 °C
[7] = system: M. kansasii DSM 44162; assay: as above; type: cell-based; conditions: Mycobacterium kansasii, DSM44162, 168 h, Middlebrook 7H9, 7 days, 37 °C
[8] = system: photosynthetic electron transport (PET) in spinach chloroplasts; assay: Inhibition of photosynthetic electron transport (PET) in spinach chloroplasts (DCPIP photoreduction); type: biochemical, Spinacia oleracea L.
Method: Chloroplasts were prepared from spinach (Spinacia oleracea L.) according to Masarovicova and Kralova. The inhibition of photosynthetic electron transport (PET) in spinach chloroplasts was determined spectrophotometrically (Genesys 6, Thermo Scientific), using an artificial electron acceptor 2,6-dichlorophenol-indophenol (DCIPP) according to Kralova et al., and the rate of photosynthetic electron transport was monitored as a photoreduction of DCPIP. The measurements were carried out in phosphate buffer (0.02 mol/L, pH 7.2) containing sucrose (0.4 mol/L), MgCl2 (0.005 mol/L) and NaCl (0.015 mol/L). The chlorophyll content was 30 mg/L in these experiments and the samples were irradiated (~100 W/m^2 with 10 cm distance) with a halogen lamp (250 W) using a 4 cm water filter to prevent warming of the samples (suspension temperature 22 °C). The studied compounds were dissolved in DMSO due to their limited water solubility. […] The inhibitory efficiency of the studied compounds was expressed by IC50 values, i.e., by molar concentration of the compounds causing 50% decrease in the oxygen evolution rate relative to the untreated control.

[9] = phosphate buffer pH 7.2, DCPIP acceptor

| log k [1] | MIC [2] | MIC [3] | MIC [4] | MIC [5] | MIC [6] | MIC [7] | IC50 [8, 9] | MIC SA ([2]; MH broth) | MIC MRSA 63718 [3] | MIC MRSA 3202 [4] | MIC MRSA 630 [5] | IC50 ([8]; as quoted in the chlorophyll a fluorescence discussion) | SMILES |
| --- | --- | --- | --- | --- | --- | --- | --- | --- | --- | --- | --- | --- | --- |
| 0.5951 | > 873 µM | > 873 µM | > 873 µM | > 873 µM | > 873 µM | 873 µM (≈ 256 µg/mL) | – | – | – | – | – | – | COc1ccc(NC(=O)c2cc3ccccc3cc2O)cc1 [2c, 3-Hydroxy-N-(4-methoxyphenyl)naphthalene-2-carboxamide] |
| 0.6936 | > 923 µM | > 923 µM | 462 µM (≈ 128 µg/mL) | > 923 µM | 462 µM (≈ 128 µg/mL) | 115 µM (≈ 31.9 µg/mL) | – | – | – | – | – | – | Cc1ccccc1NC(=O)c1cc2ccccc2cc1O [3a, 3-Hydroxy-N-(2-methylphenyl)naphthalene-2-carboxamide] |
| 0.8831 | > 923 µM | > 923 µM | 462 µM (≈ 128 µg/mL) | > 923 µM | 923 µM (≈ 256 µg/mL) | 57.7 µM (≈ 16 µg/mL) | – | – | – | – | – | – | Cc1cccc(NC(=O)c2cc3ccccc3cc2O)c1 [3b, 3-Hydroxy-N-(3-methylphenyl)naphthalene-2-carboxamide] |
| 0.8753 | > 923 µM | > 923 µM | 231 µM (≈ 64.1 µg/mL) | 462 µM (≈ 128 µg/mL) | > 923 µM | 923 µM (≈ 256 µg/mL) | – | – | – | – | – | – | Cc1ccc(NC(=O)c2cc3ccccc3cc2O)cc1 [3c, 3-Hydroxy-N-(4-methylphenyl)naphthalene-2-carboxamide] |
| 0.8296 | > 910 µM | > 910 µM | 228 µM (≈ 64.1 µg/mL) | 455 µM (≈ 128 µg/mL) | 114 µM (≈ 32.1 µg/mL) | 114 µM (≈ 32.1 µg/mL) | – | – | – | – | – | – | O=C(Nc1cccc(F)c1)c1cc2ccccc2cc1O [4b, N-(3-Fluorophenyl)-3-hydroxynaphthalene-2-carboxamide] |
| 0.7317 | > 910 µM | > 910 µM | 228 µM (≈ 64.1 µg/mL) | 455 µM (≈ 128 µg/mL) | 910 µM (≈ 256 µg/mL) | 114 µM (≈ 32.1 µg/mL) | – | – | – | – | – | – | O=C(Nc1ccc(F)cc1)c1cc2ccccc2cc1O [4c, N-(4-Fluorophenyl)-3-hydroxynaphthalene-2-carboxamide] |
| 0.9509 | > 860 µM | > 860 µM | 215 µM (≈ 64 µg/mL) | > 860 µM | 860 µM (≈ 256 µg/mL) | 860 µM (≈ 256 µg/mL) | – | – | – | – | – | – | O=C(Nc1ccccc1Cl)c1cc2ccccc2cc1O [5a, N-(2-Chlorophenyl)-3-hydroxynaphthalene-2-carboxamide] |
| 1.0796 | > 860 µM | > 860 µM | 215 µM (≈ 64 µg/mL) | 430 µM (≈ 128 µg/mL) | > 860 µM | 860 µM (≈ 256 µg/mL) | – | – | – | – | – | – | O=C(Nc1cccc(Cl)c1)c1cc2ccccc2cc1O [5b, N-(3-Chlorophenyl)-3-hydroxynaphthalene-2-carboxamide] |
| 1.0687 | > 860 µM | > 860 µM | > 860 µM | > 860 µM | > 860 µM | 430 µM (≈ 128 µg/mL) | – | – | – | – | – | – | O=C(Nc1ccc(Cl)cc1)c1cc2ccccc2cc1O [5c, N-(4-Chlorophenyl)-3-hydroxynaphthalene-2-carboxamide] |
| 0.9715 | > 748 µM | > 748 µM | > 748 µM | > 748 µM | > 748 µM | 748 µM (≈ 256 µg/mL) | 43.2 µM | – | – | – | – | – | O=C(Nc1ccccc1Br)c1cc2ccccc2cc1O [6a, N-(2-Bromophenyl)-3-hydroxynaphthalene-2-carboxamide] |
| 1.1536 | > 748 µM | > 748 µM | 187 µM (≈ 64 µg/mL) | > 748 µM | > 748 µM | 748 µM (≈ 256 µg/mL) | – | – | – | – | – | – | O=C(Nc1cccc(Br)c1)c1cc2ccccc2cc1O [6b, N-(3-Bromophenyl)-3-hydroxynaphthalene-2-carboxamide] |
| 1.1459 | > 748 µM | > 748 µM | 187 µM (≈ 64 µg/mL) | > 748 µM | > 748 µM | 374 µM (≈ 128 µg/mL) | – | – | – | – | – | – | O=C(Nc1ccc(Br)cc1)c1cc2ccccc2cc1O [6c, N-(4-Bromophenyl)-3-hydroxynaphthalene-2-carboxamide] |
| 1.2053 | > 748 µM | > 748 µM | 187 µM (≈ 62 µg/mL) | 374 µM (≈ 124 µg/mL) | > 748 µM | 748 µM (≈ 248 µg/mL) | – | – | – | – | – | – | O=C(Nc1cccc(C(F)(F)F)c1)c1cc2ccccc2cc1O [7b, 3-Hydroxy-N-(3-trifluoromethylphenyl)naphthalene-2-carboxamide] |
| 1.2835 | > 748 µM | > 748 µM | 187 µM (≈ 62 µg/mL) | 374 µM (≈ 124 µg/mL) | > 748 µM | 187 µM (≈ 62 µg/mL) | – | – | – | – | – | – | O=C(Nc1ccc(C(F)(F)F)cc1)c1cc2ccccc2cc1O [7c, 3-Hydroxy-N-(4-trifluoromethylphenyl)naphthalene-2-carboxamide] |
| – | 5.7 µM (≈ 1.99 µg/mL) | > 45.8 µM | > 45.8 µM | > 45.8 µM | – | – | – | – | – | – | – | – | CC1(C)S[C@@H]2[C@H](NC(=O)[C@H](N)c3ccccc3)C(=O)N2[C@H]1C(=O)O [APC, ampicillin, reference compound] |
| – | – | – | – | – | 467 µM (≈ 64 µg/mL) | – | – | – | – | – | – | – | NNC(=O)c1ccncc1 [INH, isoniazid, reference compound] |
| 0.6310 | > 972 µM | > 972 µM | > 972 µM | > 972 µM | 122 µM (≈ 32.1 µg/mL) | 972 µM (≈ 256 µg/mL) | – | – | – | – | – | – | O=C(Nc1ccccc1)c1cc2ccccc2cc1O [compound 1, 3-Hydroxy-N-phenylnaphthalene-2-carboxamide] |
| 0.6916 | 55 µM (≈ 16.1 µg/mL) | 55 µM (≈ 16.1 µg/mL) | 55 µM (≈ 16.1 µg/mL) | 55 µM (≈ 16.1 µg/mL) | 873 µM (≈ 256 µg/mL) | 218 µM (≈ 63.9 µg/mL) | 59.5 µM | 55 µM (≈ 16.1 µg/mL) | 55 µM (≈ 16.1 µg/mL) | 55 µM (≈ 16.1 µg/mL) | 55 µM (≈ 16.1 µg/mL) | – | COc1ccccc1NC(=O)c1cc2ccccc2cc1O [compound 2a, 3-Hydroxy-N-(2-methoxyphenyl)naphthalene-2-carboxamide] |
| 0.6971 | > 873 µM | > 873 µM | > 873 µM | > 873 µM | > 873 µM | 54.6 µM (≈ 16 µg/mL) | 53.4 µM | – | – | – | – | 53.4 µM | COc1cccc(NC(=O)c2cc3ccccc3cc2O)c1 [compound 2b, 3-Hydroxy-N-(3-methoxyphenyl)naphthalene-2-carboxamide] |
| 0.7303 | > 910 µM | > 910 µM | 228 µM (≈ 64.1 µg/mL) | 455 µM (≈ 128 µg/mL) | 28.4 µM (≈ 7.99 µg/mL) | 56.9 µM (≈ 16 µg/mL) | – | – | – | – | – | – | O=C(Nc1ccccc1F)c1cc2ccccc2cc1O [compound 4a, N-(2-Fluorophenyl)-3-hydroxynaphthalene-2-carboxamide] |

| SMILES | log k [1] | MIC [2] | MIC [3] | MIC [4] | MIC [5] | MIC [6] | MIC [7] | IC50 [8, 9] | MIC SA ([2]; MH broth) | MIC MRSA 63718 [3] | MIC MRSA 3202 [4] | MIC MRSA 630 [5] | IC50 ([8]; as quoted in the chlorophyll a fluorescence discussion) |
| --- | --- | --- | --- | --- | --- | --- | --- | --- | --- | --- | --- | --- | --- |
| CN(C)C(=O)Nc1ccc(Cl)c(Cl)c1 [DCMU, 3-(3,4-dichlorophenyl)-1,1-dimethylurea, reference compound] | – | – | – | – | – | – | – | ~1.9 µM and 1.9 µM | – | – | – | – | – |
